Consider 25 compounds from patent US10617689B2, “Compositions, methods and uses for the treatment of diabetes and related conditions by controlling blood glucose level” (PHARNEXT, priority 2013, dated 2020).

The subject of one series is beta pancreatic INS-1 cells. Put plainly: Prevention of beta cells apoptosis. In kind it is cell-based. To be noted: 1 h pre-incubation then 24 h in apoptotic condition, drugs tested alone. As to the method: Drugs of the invention have been tested for their efficiency in protecting beta cells from apoptosis. Such activity could be considered of use in type 1 diabetes as well as in type 2 diabetes.
The beta pancreatic INS-1 cells have been selected for this study. The cells are cultured in complete medium, RPMI 1640 10 mM glucose supplemented with 1 mM sodium pyruvate, 50 μM 2-mercaptoethanol, 2 mM glutamine, 10 mM HEPES, 100 IU/mL penicillin, 100 μg/mL streptomycin and 10% heat-inactivated foetal calf serum (FCS), as described by Asfari et al. (23). INS-1 cells are plated (4.5×10^4 cells/well) in 96-well poly ornithine coated plates and cultured at 37° C. in a humidified atmosphere of 95% air/5% CO2. The day after, cells are pre-incubated with the tested molecules for 1 h. Then, after a medium change, cells are cultured for 24 h in a medium containing the tested molecules and glucose 30 mM, myristic acid 0.05 mM, INF 25 ng/mL, TNF 25 ng/mL and IL 5 ng/mL.
The efficacy of compounds to prevent apoptosis is then evaluated by the highly specific apoptosis detection kit from Chemicon (Ref. APT225). This procedure is based on the detection of single-stranded DNA (ssDNA) which is a specific marker of apoptotic cells (24).
Results are expressed in optical density (OD) arbitrary unit and % of reduction of the apoptosis induced by apoptotic condition. […]
Turning to `CC(=O)NCCCS(=O)(=O)O` [acamprosate], the “Percentage of apoptosis reduction” value came out at 49%.

The next series deals with human primary myotubes derived from a diabetic patient. Put plainly: Glucose uptake in human diabetic myotubes primary cultures. Type of series: cell-based. Particulars: 0.1 μM and 1 μM. On the procedure:
In order to have a model that is most reflective of the diabetic pathological conditions, efficiency of drugs in enhancing glucose uptake in diabetic myotubes was tested. […] The myotubes from a diabetic patient were grown on HAM's F10-based media (Sigma, ref […]) supplemented with 15% of fetal bovine serum, 1 mM glutamine. Myoblast were seeded at 380,000 cells/well in 12-well plates. After 2 days of proliferation, the cells were placed in reduced serum conditions (2% horse serum) to induce differentiation. The myotubes were used after 5 days of differentiation. Dulbecco's modified Eagle's medium (DMEM)-based media (Gibco, ref 31053-028) supplemented with 2% heat-inactivated Horse serum, 2% Glutamax (Gibco, 35050) and washed for glucose uptake assays. Compounds were dissolved in DMSO to reach desired final concentration prior use. The differentiated myotubes were treated for 24 h with the compositions of the invention, before the assay. Before the initiation of glucose uptake, the cells were deprived of serum and glucose. […] After adding the compounds at the desired concentrations, the cells were incubated at 37° C. during 2 h30. […] A subsequent glucose and serum deprivation was performed in FIBS buffer at 37° C. for 2 hours. […] The cells were rinsed twice with 1 mL of cold PBS. The lysis was performed in 500 μL of 0.05N NaOH for 20 minutes. The cells lysates were transferred into scintillation vials for the measurement of radioactivity with a MicroBeta counter.
As to `CC(C(O)c1ccc(O)cc1)N1CCC(Cc2ccccc2)CC1` (centres unmarked) [ifenprodil], the “glucose uptake (in words)” value is “improvement”.

The series is the same for the next values; noted with them: pre-treatment, 0.01 μM.
In the case of `O=C1NCC2(CCN(CCc3ccccc3)CC2)O1` [fenspiride], the “enhancement of glucose uptake” value is listed as “+34%”.

With `CC(C(O)c1ccc(O)cc1)N1CCC(Cc2ccccc2)CC1` (centres unmarked) [ifenprodil], the “enhancement of glucose uptake” value is recorded as “+48%”.

Take `Cc1c(Cl)cccc1Nc1ccccc1C(=O)O` [tolfenamic acid]: the “enhancement of glucose uptake” value is “+13%”.

Take `Cc1cccc(Nc2ccncc2S(=O)(=O)NC(=O)NC(C)C)c1` [torasemide]: the “enhancement of glucose uptake” value is recorded as “+24%”.

For `Nc1nc(N)c2nc(-c3ccccc3)c(N)nc2n1` [triamterene], the “enhancement of glucose uptake” value is “+13%”.

Staying with this series, now noted: pre-treatment, 0.1 μM.
Take `O=C1NCC2(CCN(CCc3ccccc3)CC2)O1` [fenspiride]: the “enhancement of glucose uptake” value is listed as “+30%”.

Take `Cc1c(Cl)cccc1Nc1ccccc1C(=O)O` [tolfenamic acid]: the “enhancement of glucose uptake” value was “+13%”.

The same series, now with this note: pre-treatment, 1 μM.
Consider `O=C1NCC2(CCN(CCc3ccccc3)CC2)O1` [fenspiride], for which the “enhancement of glucose uptake” value is reported as “+27%”.

With `Cc1c(Cl)cccc1Nc1ccccc1C(=O)O` [tolfenamic acid], the “enhancement of glucose uptake” value was “+12%”.

As to `Cc1cccc(Nc2ccncc2S(=O)(=O)NC(=O)NC(C)C)c1` [torasemide], the “enhancement of glucose uptake” value is given as “+14%”.

System in a further series: not given
Test: not given
To be noted: mainly from Martindale (Edition 2011) and Nathan et al. (2009); cited from earlier work.
For `CCN[C@@H](C)Cc1cccc(C(F)(F)F)c1` [dexfenfluramine], the “Side Effects” value is “Cardiovascular”.

System in a further series: not listed separately
Put plainly: Results synthesis: relative performance value over all in vitro models. Particulars: results of all in vitro models normalized and weighed; single drugs. The text has this:
Table 4 gathers results that were obtained in all previously described models (see points from 1.1 to 1.5 above). A value is attributed to each candidate compound depending on its effect in the different in vitro models compared to vehicle. Results are normalized and weighed in order to generate a relative performance value for each candidate compound. A high value reflects a high potential of the compound for the normalization of glucose level and thus a significant efficacy for controlling glucose levels and/or for the treatment of diabetes or related disorders. […]
`NCC(CC(=O)O)c1ccc(Cl)cc1` (racemic) [baclofen] came in with a Relative performance value of 16.

The compound `O=C[C@@H](O)[C@@H](O)[C@H](O)[C@H](O)CO` [D-mannose] came in with a Relative performance value of 18.

For the compound `CC(=O)NCCCS(=O)(=O)O` [acamprosate], the Relative performance value is given as 15.

`C=CCNc1nc(NCC=C)nc(N2CCN(C(c3ccc(F)cc3)c3ccc(F)cc3)CC2)n1` [almitrine] displayed a Relative performance value of 38.

`CN1CCCC(n2nc(Cc3ccc(Cl)cc3)c3ccccc3c2=O)CC1` (centres unmarked) [azelastine]: the Relative performance value is given as 30.

`CCN(CC)CCOCCOC(=O)C1(c2ccccc2)CCCC1` [carbetapentane] came in with a Relative performance value of 33.

Regarding `CN/C(=N/CCSCc1nc[nH]c1C)NC#N` [cimetidine], the Relative performance value is 31.

Compound `C[C@@H](NCCCc1cccc(C(F)(F)F)c1)c1cccc2ccccc12` [cinacalcet] yielded a Relative performance value of 32.

For `CN(C)CC[C@@H](c1ccc(Br)cc1)c1ccccn1` [dexbrompheniramine], the Relative performance value came to 21.

`CCN(CC)C(=O)N1CCN(C)CC1` [diethylcarbamazine] yielded a Relative performance value of 32.

On to `Cn1c(=O)c2c(ncn2CC(O)CO)n(C)c1=O` (centres unmarked) [diprophylline], for which the Relative performance value is recorded as 11.

`COC1=C(OC)C(=O)C(CCCCCCCCCCO)=C(C)C1=O` [idebenone] had a Relative performance value of 53.

In turn, `CC(C(O)c1ccc(O)cc1)N1CCC(Cc2ccccc2)CC1` (centres unmarked) [ifenprodil] gave a Relative performance value of 28.

As to `C[C@@H]1CC(=O)NN=C1c1ccc(NN=C(C#N)C#N)cc1` [levosimendan], the Relative performance value was determined as 20.

As to `Cc1cccc(C)c1OCC(C)N` (centres unmarked) [mexiletine], the Relative performance value amounted to 10.

In turn, `CO[C@]12C[C@@H](COC(=O)c3cncc(Br)c3)CN(C)[C@@H]1Cc1cn(C)c3cccc2c13` [nicergoline] yielded a Relative performance value of 40.

As to `c1cnc(N2CCN(Cc3ccc4c(c3)OCO4)CC2)nc1` [piribedil], the Relative performance value was 24.

Turning to `C1COC(NC(C2CC2)C2CC2)=N1` [rilmenidine], the Relative performance value is 16.

On to `Cc1c(Cl)cccc1Nc1ccccc1C(=O)O` [tolfenamic acid], for which the Relative performance value is 9.

Consider `Cc1ccc(C(=O)C(C)CN2CCCCC2)cc1` (centres unmarked) [tolperisone], for which the Relative performance value was found to be 19.

In turn, `Cc1cccc(Nc2ccncc2S(=O)(=O)NC(=O)NC(C)C)c1` [torasemide] registered a Relative performance value of 16.

As for `Nc1nc(N)c2nc(-c3ccccc3)c(N)nc2n1` [triamterene], the Relative performance value stood at 18.

For a further series, the system named is Mouse muscle cells H-2 Kb. Put plainly: Glucose uptake in mouse muscle cells. Type of series: cell-based. To be noted: H-2 Kb cells; short term; 0.1 μM; vs non-treated cells. On the procedure:
For differentiation in myoblast, cells are switched to non-permissive culture conditions (37° C. in a humidified atmosphere of 95% air/5% CO2; DMEM 5.5 mM D-glucose supplemented with 2% FCS, 10% horse serum, 2% glutamine, 1% chicken embryo extract, 100 U/mL penicillin, and 100 μg/mL streptomycin).
For long term effect evaluation, the day before glucose uptake assay, cells are incubated in DMEM 5.5 mM D-glucose supplemented with 10% horse serum, 2% SVF, 1% chicken embryo extract, 2% glutamine in the presence of the tested molecules for 16 h. […]
For short term effect evaluation, 4 hours prior to the glucose test, cells are washed and incubated in a serum-free medium (DMEM) containing 5.5 mM D-glucose and the tested molecules. Then glucose uptake is measured by incubation of the cells for 5-10 min with radiolabelled 2-deoxy-D-[1,2 ^3H] glucose in Krebs-Ringer HEPES buffer (KRBH; pH 7.4) 0.1% Bovine Serum Albumine (BSA) fraction V (Sigma_A-4503). […] Cell associated radioactivity is then counted and protein quantification is determined using the colorimetric Lowry method. Glucose uptake is estimated by measuring the radioactivity incorporated to the cells by a MicroBeta counter after adding 600 μL per well of scintillant (Optiphase SuperMix3).
Protein quantification is performed by a colorimetric assay derived from Lowry method. […]
As to `CC(=O)NCCCS(=O)(=O)O` [acamprosate], the “enhancement of glucose uptake” value is on record as “+45%”.

For the next series, the system named is TNF-α induced insulin resistant 3T3-L1 adipocytes. As to the kind of experiment: Glucose uptake in TNFα induced insulin resistant 3T3-L1 differentiated adipocytes. In kind it is cell-based. To be noted: 0.37 nM and 3.3 nM, not shown. As to the method: 3T3L1 fibroblasts were maintained in DMEM 4.5 g/L glucose supplemented with 5% calf serum donor, 5% new born calf serum, 100 U/mL penicillin, and 100 μg/mL streptomycin at 37° C. under a 10% CO2 atmosphere. Cells were grown on 24 well plates at a density of 2560 cells/well in 0.5 mL of growth medium (DMEM 4.5 g/L glucose supplemented with 10% FCS, 100 U/mL penicillin, and 100 μg/mL streptomycin). […] Fresh medium were replaced after two days.
Glucose uptake was measured by quantification of incorporated radiolabelled glucose, after an incubation step with 2-deoxy-D[1,2^3H] glucose for 5 min. Glucose uptake was arrested by two washing steps in ice-cold PBS 1×. Then were solubilized in 0.1N NaOH for 30 min. Cell associated radioactivity have been then counted by using a MicroBeta counter after adding 600 μL per well of scintillant (Optiphase SuperMix3).
In parallel, protein quantification was determined by a colorimetric assay derived from LOWRY method. Results are expressed in nmol of glucose incorporated/5 min/mg of protein and in % of control or basal condition (100%).
Regarding `O=C1NCC2(CCN(CCc3ccccc3)CC2)O1` [fenspiride], the “glucose uptake (in words)” value was “improvement”.

Staying with this series, now noted: 10 nM and 100 nM, not shown.
As for `CC(C(O)c1ccc(O)cc1)N1CCC(Cc2ccccc2)CC1` (centres unmarked) [ifenprodil], the “glucose uptake (in words)” value is on record as “improvement”.

Staying with this series, now noted: 100 nM and 1 μM, not shown.
Regarding `Cc1c(Cl)cccc1Nc1ccccc1C(=O)O` [tolfenamic acid], the “glucose uptake (in words)” value was “improvement”.

The series is the same for the next values; noted with them: alone at 3.3 nM.
As to `NCC(CC(=O)O)c1ccc(Cl)cc1` (racemic) [baclofen], the “glucose uptake, drug used alone (in words)” value was “No significant effect”.

For `Cc1c(Cl)cccc1Nc1ccccc1C(=O)O` [tolfenamic acid], the “glucose uptake, drug used alone (in words)” value is given as “No significant effect”.

Turning to `Nc1nc(N)c2nc(-c3ccccc3)c(N)nc2n1` [triamterene], the “glucose uptake, drug used alone (in words)” value is “No significant effect”.

Staying with this series, now noted: alone at 10 nM.
Consider `Cc1cccc(Nc2ccncc2S(=O)(=O)NC(=O)NC(C)C)c1` [torasemide], for which the “glucose uptake, drug used alone (in words)” value is “No significant effect”.

Still in this series, the particulars now being: metformin alone at 250 μM.
Consider `CN(C)C(=N)N=C(N)N` [metformin], for which the “glucose uptake, drug used alone (in words)” value was “No significant effect”.
